How the values were obtained:
[1] = target: GST-CBP(1081-1197) bromodomain (Homo sapiens (Human), UniProt Q92793); experiment: CBP AlphaScreen Assay; details: binding to biotin-H4(1-21) Ac-K5/8/12/16 peptide
Method in brief: (§1)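 IC50 values derived by variable-slope dose-response fit between negative and DMSO control signals. AlphaScreen signal reports bromodomain association with an H4(1-21) peptide acetylated at K5, K8, K12 and K16.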

BRD4(49-170) bromodomain = BRD4(49-170) bromodomain (Homo sapiens (Human), UniProt O60885); experiment: BRD4 AlphaScreen Assay; details: binding to biotin-H4(1-21) Ac-K5/8/12/16 peptide
Method in brief: as §1

Sequence of GST-CBP(1081-1197) bromodomain (Q92793 1081-1197): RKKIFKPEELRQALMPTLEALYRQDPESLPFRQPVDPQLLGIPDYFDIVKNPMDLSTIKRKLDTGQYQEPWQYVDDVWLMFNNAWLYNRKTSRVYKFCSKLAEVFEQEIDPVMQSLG

| SMILES | IC50 [1] [nM] | IC50 (BRD4(49-170) bromodomain) [nM] |
| --- | --- | --- |
| CNC(=O)c1cc(-c2ccc3c(c2)CCCN3c2nc(C3CC3)n3c2CN(C(C)=O)CC3)ccn1 [Example 117, 4-(1-(7-acetyl-3-cyclopropyl-5,6,7,8-tetrahydroimidazo[1,5-a]pyrazin-1-yl)-1,2,3,4-tetrahydroquinolin-6-yl)-N-methylpicolinamide] | 739 | > 25000 |
| CNC(=O)N1CCn2c(C3CC3)nc(-c3c(F)ccc4cc(C5CCOCC5)ncc34)c2C1 [Example 75, 3-cyclopropyl-1-(7-fluoro-3-(tetrahydro-2H-pyran-4-yl)isoquinolin-8-yl)-N-methyl-5,6-dihydroimidazo[1,5-a]pyrazine-7(8H)-carboxamide] | 22 | > 25000 |
| CC(=O)N1CCn2c(C(C)C)nc(-c3ccc4c(c3)c(-c3cnn(C)c3)nn4C)c2C1 [Example 49, 1-(3-isopropyl-1-(1-methyl-3-(1-methyl-1H-pyrazol-4-yl)-1H-indazol-5-yl)-5,6-dihydroimidazo[1,5-a]pyrazin-7(8H)-yl)ethan-1-one] | 67 | > 10000 |

Source: US11058688B2, “Imidazopiperazine inhibitors of transcription activating proteins” (Board of Regents, The University of Texas System, priority 2018, dated 2021)
